Data as given in PMC4980843 (European journal of medicinal chemistry, 2009).
Where two headings read alike, the source gives them in different places.

Legend:
human PDE3A isozyme = human PDE3A isozyme (Homo sapiens, UniProt Q14432); test: IMAP fluorescence polarization phosphodiesterase assay; type: biochemical; settings: for % PDE3 Inhibition at 50 μM, cGMP: cGMP as substrate
[1] = system: human HT-29 colon tumor cell line; test: Tumor cell growth inhibition, Cell Titer Glo assay, 72 h; type: cell-based; settings: HT-29 cells

Sequence of human PDE3A isozyme (Q14432 whole entry): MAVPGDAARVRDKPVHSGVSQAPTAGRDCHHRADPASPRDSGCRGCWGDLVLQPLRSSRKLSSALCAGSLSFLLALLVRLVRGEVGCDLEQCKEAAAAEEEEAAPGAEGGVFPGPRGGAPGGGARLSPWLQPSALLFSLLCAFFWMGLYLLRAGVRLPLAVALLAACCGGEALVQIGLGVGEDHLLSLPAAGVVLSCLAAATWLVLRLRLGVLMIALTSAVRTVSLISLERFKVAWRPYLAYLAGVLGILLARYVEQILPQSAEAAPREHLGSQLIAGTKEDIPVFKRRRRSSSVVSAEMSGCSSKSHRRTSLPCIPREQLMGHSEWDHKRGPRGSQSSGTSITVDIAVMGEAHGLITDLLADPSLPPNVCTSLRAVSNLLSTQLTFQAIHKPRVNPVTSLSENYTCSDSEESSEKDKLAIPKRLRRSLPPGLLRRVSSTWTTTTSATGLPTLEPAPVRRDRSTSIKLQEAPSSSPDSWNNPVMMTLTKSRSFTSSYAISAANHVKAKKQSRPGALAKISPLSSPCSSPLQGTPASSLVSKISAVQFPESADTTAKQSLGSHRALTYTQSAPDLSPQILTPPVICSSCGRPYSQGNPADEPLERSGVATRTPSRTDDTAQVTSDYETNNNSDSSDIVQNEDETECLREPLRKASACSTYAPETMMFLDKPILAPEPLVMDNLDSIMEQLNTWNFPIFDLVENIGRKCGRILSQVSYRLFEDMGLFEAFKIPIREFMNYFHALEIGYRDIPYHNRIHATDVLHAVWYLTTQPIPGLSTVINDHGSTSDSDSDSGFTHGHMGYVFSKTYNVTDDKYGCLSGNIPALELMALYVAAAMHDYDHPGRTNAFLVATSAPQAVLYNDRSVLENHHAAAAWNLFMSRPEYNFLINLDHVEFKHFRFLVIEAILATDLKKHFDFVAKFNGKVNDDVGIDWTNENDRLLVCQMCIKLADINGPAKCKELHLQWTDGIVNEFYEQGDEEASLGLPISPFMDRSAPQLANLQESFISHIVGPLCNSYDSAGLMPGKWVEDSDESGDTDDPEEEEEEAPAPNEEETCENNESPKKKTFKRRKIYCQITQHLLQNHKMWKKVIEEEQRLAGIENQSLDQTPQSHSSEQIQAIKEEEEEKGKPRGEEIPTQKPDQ

COc1ccccc1-c1cc(-c2ccsc2)[nH]c(=N)c1C#N [Compound 29, 2-Imino-4-(2-methoxyphenyl)-6-(thiophen-3-yl)-1,2-dihydropyridine-3-carbonitrile]
inhibition at 50 µM (human PDE3A isozyme; read-out: % PDE3 Inhibition at 50 μM, cGMP, 50 μM, cGMP as substrate): -95% | tumor cell growth inhibitory activity (in words) [1]: displayed tumor cell growth inhibitory activity

COc1ccc(-c2cc(-c3ccsc3)[nH]c(=N)c2C#N)cc1 [Compound 28, 2-Imino-4-(4-methoxyphenyl)-6-(thiophen-3-yl)-1,2-dihydropyridine-3-carbonitrile]
tumor cell growth inhibitory activity (in words) [1]: displayed tumor cell growth inhibitory activity

CCOc1ccccc1-c1cc(-c2ccsc2)[nH]c(=N)c1C#N [Compound 27, 4-(2-Ethoxyphenyl)-2-imino-6-(thiophen-3-yl)-1,2-dihydropyridine-3-carbonitrile]
tumor cell growth inhibitory activity (in words) [1]: displayed tumor cell growth inhibitory activity

COc1ccc(OC)c(-c2cc(-c3ccc(Br)cc3)[nH]c(=N)c2C#N)c1 [Compound 9, 6-(4-Bromophenyl)-4-(2,5-dimethoxyphenyl)-2-imino1,2-dihydropyridine3-carbonitrile]
tumor cell growth inhibitory activity (in words) [1]: displayed tumor cell growth inhibitory activity

CCOc1ccccc1-c1cc(-c2ccsc2)[nH]c(=O)c1C#N [Compound 21, 4-(2-Ethoxyphenyl)-2-oxo-6-thiophen-3-yl-1,2-dihydropyridine-3 carbonitrile]
tumor cell growth inhibitory activity (in words) [1]: displayed tumor cell growth inhibitory activity

N#Cc1c(-c2ccccc2O)cc(-c2ccsc2)[nH]c1=O [Compound 19, 4-(2-Hydroxyphenyl)-2-oxo-6-thiophen-3-yl-1,2-dihydropyridine-3-carbonitrile]
tumor cell growth inhibitory activity (in words) [1]: displayed tumor cell growth inhibitory activity

2-Imino-4-phenyl-6-(thiophen-3-yl)-1,2-dihydropyridine-3-carbonitrile [Compound 25]
% PDE3 Inhibition at 50 μM, cAMP (human PDE3A isozyme; 50 μM, cAMP as substrate): 21% | % PDE3 Inhibition at 50 μM, cGMP (human PDE3A isozyme; 50 μM): 26%

N#Cc1c(-c2ccccc2O)cc(-c2ccc(Br)cc2)[nH]c1=O [Compound 1, 6-(4-Bromophenyl)-4-(2-hydroxyphenyl)-2-oxo-1,2-dihydropyridine-3-carbonitrile]
tumor cell growth inhibitory activity (in words) [1]: displayed tumor cell growth inhibitory activity

N#Cc1c(-c2cccc(Cl)c2)cc(-c2ccccc2)[nH]c1=O [Compound 15, 4-(3-Chlorophenyl)-2-oxo-6-phenyl-1,2-dihydropyridine-3-carbonitrile]
tumor cell growth inhibitory activity (in words) [1]: displayed tumor cell growth inhibitory activity

CCOc1ccc(-c2cc(-c3ccsc3)[nH]c(=N)c2C#N)cc1 [Compound 26, 4-(4-Ethoxyphenyl)-2-imino-6-(thiophen-3-yl)-1,2-dihydropyridine-3-carbonitrile]
% PDE3 Inhibition at 50 μM, cGMP (human PDE3A isozyme; 50 μM): > 50% | inhibition at 50 µM (human PDE3A isozyme; read-out: % PDE3 Inhibition at 50 μM, cAMP, 50 μM, cAMP as substrate): > 50% | tumor cell growth inhibitory activity (in words) [1]: no tumor cell growth inhibitory activity
